Measurements: patent publication US11224588B2, “Combination of lipoic acid and taurine as osmoprotective agent” (OPHTALMIS MONACO, priority 2015, dated 2022)

How the values were obtained:
[1] = tested on: human corneal (HCE) cells; test: Cell viability (XTT assay) after hyperosmolar stress, HCE cells; format: cell-based; settings: at 0.005% and 0.001% (w/v), 4 h and 8 h post-stress; FIG. 1
Procedure: A study was carried out to determine the osmoprotective capacity of sodium lipoate (A) during hyperosmolar stress on human conjunctival (WKD) and corneal (HCE) cells. In a second phase, tests were carried out to compare the effect of lipoic acid, glycerin (B), and taurine (C), individually and when the molecules were combined, on HCE cells under hyperosmolar stress conditions. The osmoprotective activity of A, then A with B and C, was evaluated by measuring cell viability in particular. To that end, cells were preincubated for 17 h with the test substance(s). Next, the medium was removed and the cells were subjected to hyperosmolar stress by addition of sodium chloride (100 mM NaCl) to the culture medium (M199 for the WKD cells and KSFM for the HCE cells). Cell-growth control cells were contacted with isotonic medium. Cell viability was analyzed pre-osmotic stress (0 h) in order to measure the effect of the molecules remaining in contact with the cells during the 17 h of incubation, then at 4 h, 8 h and 24 h post-induction of osmotic stress. The cell viability measurement was carried out via an XTT assay. Various concentrations of A were tested for the “molecule alone” tests: 0.0005%, 0.001%, 0.005%, 0.01% and 0.05% w/v. […] To ensure the validity and the significance of the data, the results obtained were analyzed statistically. […]

[2] = tested on: corneal cells; test: Antioxidant effect on corneal cells; format: cell-based

## O=C(O)CCCCC1CCSS1 (centres unmarked) [Sodium Lipoate, 5-(1,2-dithiolan-3-yl)pentanoic acid]
[1]
  Osmoprotective activity against osmotic stress: high osmoprotective activity
[2]
  Antioxidant effect: rather weak
